“Also recorded” adds a separate entry of the source.
Assays:
[1] = system: normal human liver L-O2 cells; test: In vitro toxicity test; type: cell-based; settings: for IC50: Homo sapiens, L02, 72 h, read-out: IC50 L-O2 cells; for SI (selectivity index): ratio of IC50 of L-O2 cells divided by that of HL-60 cells
[2] = system: promyelocytic leukaemia HL-60 cells; test: MTT cell growth inhibition assay, HL-60; type: cell-based; settings: Homo sapiens, HL-60, 72 h, read-out: IC50 HL-60 cells
[3] = molecular target: T1, HDAC10 (Homo sapiens, UniProt Q969S8); test: In vitro HDAC10 inhibition assay; type: biochemical
T1 sequence (Q969S8 1-669): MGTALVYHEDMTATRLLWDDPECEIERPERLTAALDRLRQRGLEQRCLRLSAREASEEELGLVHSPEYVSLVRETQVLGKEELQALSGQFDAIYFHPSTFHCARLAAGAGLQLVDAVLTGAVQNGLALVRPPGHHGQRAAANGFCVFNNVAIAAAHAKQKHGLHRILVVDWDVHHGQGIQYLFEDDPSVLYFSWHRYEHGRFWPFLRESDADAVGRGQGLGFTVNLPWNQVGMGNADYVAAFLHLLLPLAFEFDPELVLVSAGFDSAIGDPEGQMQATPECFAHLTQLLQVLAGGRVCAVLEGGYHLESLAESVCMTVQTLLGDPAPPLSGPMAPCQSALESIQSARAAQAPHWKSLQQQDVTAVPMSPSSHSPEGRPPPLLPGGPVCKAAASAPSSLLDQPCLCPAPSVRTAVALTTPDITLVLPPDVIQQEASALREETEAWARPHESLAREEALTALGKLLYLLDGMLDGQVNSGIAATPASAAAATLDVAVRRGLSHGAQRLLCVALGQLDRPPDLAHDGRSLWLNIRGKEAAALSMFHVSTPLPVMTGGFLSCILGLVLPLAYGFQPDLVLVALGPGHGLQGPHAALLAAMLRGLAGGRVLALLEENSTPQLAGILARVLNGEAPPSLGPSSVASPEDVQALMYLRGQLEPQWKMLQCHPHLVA

[4] = system: colon cancer HCT-116 cells; test: MTT cell growth inhibition assay, HCT-116; type: cell-based, human; settings: for IC50: Homo sapiens, HCT-116, 72 h, read-out: IC50 HCT-116 cells
[5] = molecular target: HDAC1 (Homo sapiens, UniProt Q13547); test: In vitro HDAC1 inhibition assay; type: biochemical; settings: for IC50 HDAC1: mean ± SEM of three independent assays, NA: IC50 not apparent even with the compound tested >10 μM; for SI (selectivity index): ratio of IC50 of HDAC6 divided by that of HDAC1
HDAC1, sequence (Q13547 whole entry): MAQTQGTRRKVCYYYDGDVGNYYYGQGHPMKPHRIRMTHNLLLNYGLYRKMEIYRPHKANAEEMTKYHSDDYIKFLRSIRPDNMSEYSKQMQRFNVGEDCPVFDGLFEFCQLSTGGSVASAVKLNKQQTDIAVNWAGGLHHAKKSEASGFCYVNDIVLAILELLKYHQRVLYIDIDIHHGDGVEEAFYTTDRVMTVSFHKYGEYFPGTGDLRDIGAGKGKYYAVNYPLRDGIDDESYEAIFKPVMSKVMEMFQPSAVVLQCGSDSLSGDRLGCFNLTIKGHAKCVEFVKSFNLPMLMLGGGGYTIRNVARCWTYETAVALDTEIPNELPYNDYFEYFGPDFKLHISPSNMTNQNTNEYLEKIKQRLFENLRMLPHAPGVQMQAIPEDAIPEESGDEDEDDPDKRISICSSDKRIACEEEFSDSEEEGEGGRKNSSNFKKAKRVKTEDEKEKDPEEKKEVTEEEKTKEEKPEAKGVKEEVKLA

[6] = molecular target: HDAC3 (Homo sapiens, UniProt O15379); test: In vitro HDAC3 inhibition assay; type: biochemical
HDAC3, sequence (O15379 whole entry): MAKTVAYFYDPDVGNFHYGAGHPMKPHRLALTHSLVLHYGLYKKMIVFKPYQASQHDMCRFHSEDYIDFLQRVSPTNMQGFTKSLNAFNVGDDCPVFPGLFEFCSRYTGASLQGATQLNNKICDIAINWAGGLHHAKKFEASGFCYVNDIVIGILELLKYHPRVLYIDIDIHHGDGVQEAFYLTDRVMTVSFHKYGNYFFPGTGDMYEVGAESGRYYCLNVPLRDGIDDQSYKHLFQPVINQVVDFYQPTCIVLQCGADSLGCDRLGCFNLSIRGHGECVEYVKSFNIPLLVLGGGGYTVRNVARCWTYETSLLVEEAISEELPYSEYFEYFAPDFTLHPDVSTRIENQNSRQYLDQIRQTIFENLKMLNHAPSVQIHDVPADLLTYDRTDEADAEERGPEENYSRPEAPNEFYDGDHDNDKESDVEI
HDAC3, sequence (Q9Y618 395-489 partner limits assumed): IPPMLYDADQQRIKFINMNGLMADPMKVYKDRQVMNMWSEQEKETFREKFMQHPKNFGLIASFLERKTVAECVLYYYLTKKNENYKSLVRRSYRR

[7] = system: HL-60 cells; test: Cell apoptosis detection; type: cell-based, human; settings: HL-60, 48 h
[8] = molecular target: T2, HDAC8 (Homo sapiens, UniProt Q9BY41); test: In vitro HDAC8 inhibition assay; type: biochemical; settings: for IC50 HDAC8: mean ± SEM of three independent assays
T2 sequence (Q9BY41 1-377): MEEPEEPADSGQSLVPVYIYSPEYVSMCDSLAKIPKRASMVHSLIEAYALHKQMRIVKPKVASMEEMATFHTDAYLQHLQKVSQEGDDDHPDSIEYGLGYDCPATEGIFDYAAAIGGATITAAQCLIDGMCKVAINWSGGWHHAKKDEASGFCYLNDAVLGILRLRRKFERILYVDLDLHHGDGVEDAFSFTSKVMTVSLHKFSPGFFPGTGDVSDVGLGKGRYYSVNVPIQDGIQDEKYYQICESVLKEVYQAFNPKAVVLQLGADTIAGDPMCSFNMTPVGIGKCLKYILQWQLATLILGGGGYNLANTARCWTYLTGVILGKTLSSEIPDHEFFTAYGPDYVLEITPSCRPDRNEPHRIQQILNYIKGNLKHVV

[9] = system: HL-60 cells; test: Cell cycle analysis by flow cytometry; type: cell-based, human; settings: HL-60, 48 h
[10] = molecular target: T3, HDAC6 (Homo sapiens, UniProt Q9UBN7); test: In vitro HDAC6 inhibition assay; type: biochemical; settings: mean ± SEM of three independent assays; NA: IC50 not apparent even with the compound tested >10 μM
T3 sequence (Q9UBN7 1-1215): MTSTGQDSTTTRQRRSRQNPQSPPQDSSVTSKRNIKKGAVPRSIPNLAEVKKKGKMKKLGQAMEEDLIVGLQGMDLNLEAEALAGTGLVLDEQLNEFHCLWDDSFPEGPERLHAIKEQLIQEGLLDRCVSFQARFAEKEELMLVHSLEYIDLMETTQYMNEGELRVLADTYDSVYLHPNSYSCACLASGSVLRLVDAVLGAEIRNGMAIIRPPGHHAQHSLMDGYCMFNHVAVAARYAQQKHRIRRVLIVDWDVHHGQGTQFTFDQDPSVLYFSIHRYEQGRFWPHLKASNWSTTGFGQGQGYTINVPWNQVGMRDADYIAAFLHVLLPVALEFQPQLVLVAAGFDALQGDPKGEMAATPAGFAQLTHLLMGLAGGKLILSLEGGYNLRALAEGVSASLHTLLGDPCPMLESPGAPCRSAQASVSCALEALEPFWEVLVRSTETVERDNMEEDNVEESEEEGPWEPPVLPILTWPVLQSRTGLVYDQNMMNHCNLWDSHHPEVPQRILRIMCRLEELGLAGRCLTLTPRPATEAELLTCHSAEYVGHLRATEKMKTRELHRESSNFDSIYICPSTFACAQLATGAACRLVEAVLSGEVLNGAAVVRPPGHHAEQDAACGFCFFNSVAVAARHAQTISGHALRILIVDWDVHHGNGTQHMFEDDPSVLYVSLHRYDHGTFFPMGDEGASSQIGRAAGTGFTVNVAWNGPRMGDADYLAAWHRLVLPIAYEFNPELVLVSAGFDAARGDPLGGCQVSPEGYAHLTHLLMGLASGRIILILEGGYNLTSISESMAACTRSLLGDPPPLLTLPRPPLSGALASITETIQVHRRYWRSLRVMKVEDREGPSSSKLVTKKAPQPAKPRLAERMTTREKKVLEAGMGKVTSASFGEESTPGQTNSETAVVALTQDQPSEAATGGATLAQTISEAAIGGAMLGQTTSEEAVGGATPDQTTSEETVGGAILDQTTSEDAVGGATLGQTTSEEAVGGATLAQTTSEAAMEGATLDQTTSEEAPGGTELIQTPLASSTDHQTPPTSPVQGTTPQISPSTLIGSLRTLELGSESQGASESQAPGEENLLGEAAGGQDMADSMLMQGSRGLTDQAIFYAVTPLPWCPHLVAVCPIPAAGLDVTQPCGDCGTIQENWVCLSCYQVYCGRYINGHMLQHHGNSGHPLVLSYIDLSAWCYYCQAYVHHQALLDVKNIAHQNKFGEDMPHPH

[11] = system: HL-60 cells; test: Western blot analysis in HL-60 cells; type: cell-based, human; settings: 48 h; for histone H3 acetylation (Ac-H3) level: different concentrations; for expression of Rb / expression of p-Rb / expression of γ-H2AX: increasing concentration

`Nc1cc(F)ccc1NC(=O)c1ccc(CNC(=O)/C=C/c2cccnc2)cc1` [Chidamide, chidamide, reference compound] was tested, and the IC50 [1] was 8870 ± 930 nM, the IC50 [2] was 860 ± 70 nM and the IC50 [3] was 259 ± 23 nM. For the same compound, the IC50 [4] was 3860 ± 1080 nM.

In the case of `Nc1cc(F)ccc1NC(=O)c1ccc(Cl)c2c(=O)c3cccc([N+](=O)[O-])c3[nH]c12` [Compound 8a, N-(2-amino-4-fluorophenyl)-1-chloro-5-nitro-9-oxo-9,10-dihydroacridine-4-carboxamide], the “IC50 HDAC1” value [5] is reported as “completely lost”.

With `COc1cccc2c(=O)c3c(Cl)ccc(C(=O)NCCCC(=O)Nc4ccccc4N)c3[nH]c12` [Compound 11a, N-(4-((2-aminophenyl)amino)-4-oxobutyl)-1-chloro-5-methoxy-9-oxo-9,10-dihydroacridine-4-carboxamide] the IC50 [5] was 4090 ± 273 nM, the “SI (selectivity index)” value [5] was greater than 2.4 and the IC50 [2] was 13200 ± 2430 nM. The “IC50 HCT-116 cells” value ([4]; MTT, 72 h, mean ± SEM of three assays, NA: IC50 not apparent even with the compound tested >50 μM) was “no anti-proliferation activity”.

In the case of `COc1cccc2c(=O)c3c(Cl)ccc(C(=O)NCCCCCC(=O)Nc4ccccc4N)c3[nH]c12` [Compound 11b, N-(6-((2-aminophenyl)amino)-6-oxohexyl)-1-chloro-5-methoxy-9-oxo-9,10-dihydroacridine-4-carboxamide], the IC50 [1] is reported as 5000 ± 330 nM, the “SI (selectivity index)” value [1] is reported as 8.9 and the IC50 [5] is reported as 227 ± 9 nM. The “SI (selectivity index)” value [5] was greater than 44.1, the IC50 [6] was 418 ± 40 nM and the IC50 [2] was 560 ± 30 nM. For the same compound, the “proportion of apoptotic cells” value ([7]; 2.5 μM) was 85.8%, the IC50 [8] was greater than 5000 nM and the “IC50 HDAC8” value [8] was “no inhibitory effect; also recorded: no inhibitory activity”. The IC50 [3] was 387 ± 64 nM, the IC50 [4] was 3170 ± 260 nM and the “proportion of cells in S phase” value ([9]; 0.1 μM) was 49.1%. For the same compound, the “proportion of cells in S phase” value ([9]; 0.5 μM) was 50.4%, the “proportion of cells in S phase” value ([9]; 2.5 μM) was 59.2% and the “IC50 HDAC6” value [10] was “no inhibitory effect; also recorded: no inhibitory activity”. For the same compound, the “histone H3 acetylation (Ac-H3) level” value [11] was “significantly induced histone H3 acetylation”, the “expression of Rb” value [11] was “significantly down-regulated” and the “expression of p-Rb” value [11] was “significantly down-regulated”. The “expression of γ-H2AX” value [11] was “up-regulated”.

In the case of `COc1cccc2c(=O)c3c(Cl)ccc(C(=O)NCCCCCCC(=O)Nc4ccccc4N)c3[nH]c12` [Compound 11c, N-(7-((2-aminophenyl)amino)-7-oxoheptyl)-1-chloro-5-methoxy-9-oxo-9,10-dihydroacridine-4-carboxamide], the IC50 [1] is reported as 7190 ± 1520 nM, the “SI (selectivity index)” value [1] is reported as 5.8 and the IC50 [5] is reported as 87 ± 3 nM. For the same compound, the “SI (selectivity index)” value [5] was greater than 114.9, the IC50 [6] was 225 ± 9 nM and the IC50 [2] was 1240 ± 80 nM. The “proportion of apoptotic cells” value ([7]; 5 μM) was 70.3%, the IC50 [8] was greater than 5000 nM and the “IC50 HDAC8” value [8] was “no inhibitory effect; also recorded: no inhibitory activity”. The IC50 [3] was 177 ± 8 nM, the IC50 [4] was 4210 ± 570 nM and the “proportion of cells in S phase” value ([9]; 0.2 μM) was 48.4%. The “proportion of cells in S phase” value ([9]; 1 μM) was 52.7%, the “proportion of cells in S phase” value ([9]; 5 μM) was 58.4% and the “IC50 HDAC6” value [10] was “no inhibitory effect; also recorded: no inhibitory activity”. For the same compound, the “histone H3 acetylation (Ac-H3) level” value [11] was “significantly induced histone H3 acetylation”, the “expression of Rb” value [11] was “significantly down-regulated” and the “expression of p-Rb” value [11] was “significantly down-regulated”. The “expression of γ-H2AX” value [11] was “up-regulated”.

With `COc1cccc2c(=O)c3c(Cl)ccc(C(=O)NCCCCCCC(=O)Nc4ccc(F)cc4N)c3[nH]c12` [Compound 11d, N-(7-((2-amino-4-fluorophenyl)amino)-7-oxoheptyl)-1-chloro-5-methoxy-9-oxo-9,10-dihydroacridine-4-carboxamide] the IC50 [5] was 247 ± 38 nM, the “SI (selectivity index)” value [5] was greater than 40.5 and the IC50 [2] was 10200 ± 3200 nM. It also gave an IC50 [4] of 7510 ± 740 nM.

For `Cc1c(C(=O)Nc2ccccc2N)cc(Br)c2c(=O)c3ccccc3[nH]c12` [Compound 16a, N-(2-aminophenyl)-1-bromo-4-methyl-9-oxo-9,10-dihydroacridine-3-carboxamide], the “IC50 HDAC1” value [5] was “completely lost”.

For `Cc1c(C(=O)Nc2ccc(Br)cc2N)cc(Br)c2c(=O)c3ccccc3[nH]c12` [Compound 16b, N-(2-amino-4-bromophenyl)-1-bromo-4-methyl-9-oxo-9,10-dihydroacridine-3-carboxamide], the “IC50 HDAC1” value [5] was “completely lost”.

Reference: article PMC10165928 (Journal of Enzyme Inhibition and Medicinal Chemistry, 2023)
